Assay results reported in patent US12378211B2, “Carbonic anhydrase inhibitors and antibiotics against multidrug resistant bacteria” (Purdue Research Foundation, priority 2018, dated 2025).
Converted amounts (≈) assume the structure as drawn. Where two headings read alike, the source gives them in different places.

Columns and labels:
[1] = tested on: Enterococcus faecalis—S613 HM-334; test: MIC, broth microdilution in TSB; type: cell-based; details: TSB; for MIC: Enterococcus
Protocol: (§1) The minimum inhibitory concentrations (MICs) of the compounds and control drugs were determined using the broth microdilution method, according to guidelines outlined by the Clinical and Laboratory Standards Institute (CLSI). Enterococci strains were grown aerobically overnight on tryptone soya agar plates at 37° C., afterwards a bacterial solution equivalent to 0.5 McFarland standard was prepared and diluted in tryptone soy broth (TSB) to achieve a bacterial concentration of about 5×10^5 CFU/mL and seeded in 96-well well plates. Compounds and control drugs were added in the first row of the 96-well plates and serially diluted along the plates. Plates were then incubated aerobically at 37° C. for 18-20 hours. MICs reported in Table 1 are the minimum concentration of the compounds/control drugs that could inhibit completely the visual growth of the bacteria.

[2] = tested on: Enterococcus faecium E417-HM-965; test: MIC, broth microdilution in TSB; type: cell-based; details: TSB; for MIC: Enterococcus faecium, E417HM965
Protocol: as §1

[3] = tested on: Enterococcus faecium Patient #2-1-NR-31909; test: MIC, broth microdilution in TSB; type: cell-based; details: TSB; for MIC: Enterococcus faecium
Protocol: as §1

[4] = tested on: Enterococcus faecium Patient #3-1 NR-31912; test: MIC, broth microdilution in TSB; type: cell-based; details: TSB; for MIC: Enterococcus faecium
Protocol: as §1

[5] = tested on: Enterococcus fecalis Strain MMH594-NR31975; test: MIC, broth microdilution in TSB; type: cell-based; details: TSB; for MIC: Enterococcus
Protocol: as §1

[6] = tested on: Enterococcus fecalis Strain SF 24397 NR31970; test: MIC, broth microdilution in TSB; type: cell-based; details: TSB; for MIC: Enterococcus
Protocol: as §1

[7] = tested on: Enterococcus fecalis Strain SF 28073-NR31972; test: MIC, broth microdilution in TSB; type: cell-based; details: TSB; for MIC: Enterococcus
Protocol: as §1

[8] = tested on: Enterococcus fecalis Strain SF24413 NR31971; test: MIC, broth microdilution in TSB; type: cell-based; details: TSB; for MIC: Enterococcus
Protocol: as §1

[9] = tested on: MRSA NRS 384 (MRSA USA300); test: MIC against Staphylococci, broth microdilution; type: cell-based, Staphylococcus aureus; details: Staphylococcus aureus; TSB; read-out: MIC
Protocol: as §1, with “Institute (CLSI) 1. Staphylococci” for “Institute (CLSI). Enterococci”, “Table 2” for “Table 1”

[10] = tested on: Staphylococcus epidermidis NRS 101; test: MIC against Staphylococci, broth microdilution; type: cell-based; details: Staphylococcus epidermidis, NRS101; TSB; read-out: MIC
Protocol: as §1, with “Institute (CLSI) 1. Staphylococci” for “Institute (CLSI). Enterococci”, “Table 2” for “Table 1”

[11] = tested on: Bacteroides dorei—CL02T12C06 HM-719; test: MIC against human normal gut microbiota; type: cell-based; details: Bacteroides; BHIS broth, anaerobic, 48 hours; read-out: MIC
Protocol: (§2) Three different bacterial strains were used in this experiment; Bifidobacterium (anaerobic Gram positive bacteria), Bacteroides (anaerobic Gram negative bacteria) and Lactobacillus (microaerophilic Gram positive bacteria). Bifidobacterium and Bacteroides were first grown for 48 hours at 37° C., anaerobically using brain heart infusion supplemented (BHIS) agar (Brain heart infusion agar supplemented with hemin, vitamin K and L-cysteine). Lactobacillus was cultivated on MRS agar and incubated in presence of 5% CO2 for 48 hours at 37° C. Each bacterium was suspended in phosphate buffered saline (PBS) to produce a suspension with optical density that matches 0.5 McFarland standard and diluted in brain heart infusion supplemented broth (for Bifidobacterium and Bacteroides) or in MRS broth (for Lactobacillus) to achieve bacterial concentration of approximately 5×10^5 CFU/ml. Bacteria were then seeded in 96-well plates containing serial dilutions of the compounds and incubated as mentioned previously for 48 hours.

[12] = tested on: Bacteroides fragilis—CL07T00C01 HIM-709; test: MIC against human normal gut microbiota; type: cell-based; details: Bacteroides; BHIS broth, anaerobic, 48 hours; read-out: MIC
Protocol: as §2

[13] = tested on: Bifidobacterium breve—JCP7499 HIM 1120; test: MIC against human normal gut microbiota; type: cell-based; details: Bifidobacterium; BHIS broth, anaerobic, 48 hours; read-out: MIC
Protocol: as §2

[14] = tested on: Bifidobacterium longum subsp. Longum—44B HM 845; test: MIC against human normal gut microbiota; type: cell-based; details: Bifidobacterium longum; BHIS broth, anaerobic, 48 hours; read-out: MIC
Protocol: as §2

[15] = tested on: Lactobacillus casei ATCC 334; test: MIC against human normal gut microbiota; type: cell-based; details: Lacticaseibacillus casei, ATCC334; MRS broth, 5% CO2, 48 hours; read-out: MIC
Protocol: as §2

[16] = tested on: Lactobacillus gasseri EX336960VC03 HIM-400; test: MIC against human normal gut microbiota; type: cell-based; details: Lactobacillus gasseri; MRS broth, 5% CO2, 48 hours; read-out: MIC
Protocol: as §2

Compound	MIC ([2]; Table 7, read-out: MIC in TSB) [µg/mL]	MIC ([3]; Table 7, read-out: MIC in TSB) [µg/mL]	MIC ([4]; Table 7, read-out: MIC in TSB) [µg/mL]	MIC ([7]; Table 7, read-out: MIC in TSB) [µg/mL]	also measured
3-cyclohexyl-N-(5-sulfamoyl-1,3,4-thiadiazol-2-yl) propenamide [CAI0019]					MIC in TSB ([1]; Table 7): 0.007 µg/mL; MIC in TSB ([2]; Table 7): 0.007 µg/mL; MIC in TSB ([3]; Table 7): 0.003 µg/mL; MIC in TSB ([4]; Table 7): 0.007 µg/mL; MIC in TSB ([5]; Table 7): 0.015 µg/mL; MIC in TSB ([6]; Table 7): 0.015 µg/mL; MIC in TSB ([7]; Table 7): 0.015 µg/mL; MIC in TSB ([8]; Table 7): 0.015 µg/mL
NS(=O)(=O)c1nnc(NCc2ccc(Cl)cc2)s1 [CAI0001, 5-((4-chlorobenzyl)amino)-1,3,4-thiadiazole-2-sulfonamide]	> 64	8 (≈ 26.2 µM)	> 64	> 64	
NS(=O)(=O)c1nnc(NCc2ccccc2Cl)s1 [CAI0002, 5-((2-chlorobenzyl)amino)-1,3,4-thiadiazole-2-sulfonamide]	> 64	> 64	> 64	> 64	
NS(=O)(=O)c1nnc(NCc2ccc(Br)cc2)s1 [CAI0003, 5-((4-bromobenzyl)amino)-1,3,4-thiadiazole-2-sulfonamide]	> 64	> 64	> 64	> 64	
NS(=O)(=O)c1nnc(NCc2cccc(Br)c2)s1 [CAI0004, 5-((3-bromobenzyl)amino)-1,3,4-thiadiazole-2-sulfonamide]	16 (≈ 45.8 µM)	8 (≈ 22.9 µM)	8 (≈ 22.9 µM)	8 (≈ 22.9 µM)	
NS(=O)(=O)c1nnc(NCc2ccccc2)s1 [CAI0005, 5-(benzylamino)-1,3,4-thiadiazole-2-sulfonamide]	> 64	> 64		> 64	
NS(=O)(=O)c1nnc(NCc2ccccc2C(F)(F)F)s1 [CAI0006, 5-((2-(trifluoromethyl)benzyl)amino)-1,3,4-thiadiazole-2-sulfonamide]	> 64	> 64		> 64	
NS(=O)(=O)c1nnc(NCc2cccc(C(F)(F)F)c2)s1 [CAI0007, 5-((3-(trifluoromethyl)benzyl)amino)-1,3,4-thiadiazole-2-sulfonamide]	8 (≈ 23.6 µM)	8 (≈ 23.6 µM)	8 (≈ 23.6 µM)	4 (≈ 11.8 µM)	
NS(=O)(=O)c1nnc(NCc2ccc(C(F)(F)F)cc2)s1 [CAI0008, 5-((4-(trifluoromethyl)benzyl)amino)-1,3,4-thiadiazole-2-sulfonamide]	> 64	> 64	> 64	> 64	
CCC(=O)Nc1nnc(S(N)(=O)=O)s1 [CAI0009, N-(5-Sulfamoyl-1,3,4-thiadiazol-2-yl) propionamide]	1 (≈ 4.23 µM)	1 (≈ 4.23 µM)	1 (≈ 4.23 µM)	4 (≈ 16.9 µM)	MIC ([1]; Table 1, read-out: MIC): 2 µg/mL (≈ 8.46 µM); MIC ([1]; Table 7, read-out: MIC in TSB): 2 µg/mL (≈ 8.46 µM); MIC ([2]; Table 1, read-out: MIC): 1 µg/mL (≈ 4.23 µM); MIC ([3]; Table 1, read-out: MIC): 1 µg/mL (≈ 4.23 µM); MIC ([4]; Table 1, read-out: MIC): 1 µg/mL (≈ 4.23 µM); MIC ([5]; Table 1, read-out: MIC): 2 µg/mL (≈ 8.46 µM); MIC ([5]; Table 7, read-out: MIC in TSB): 2 µg/mL (≈ 8.46 µM); MIC ([6]; Table 1, read-out: MIC): 4 µg/mL (≈ 16.9 µM); MIC ([6]; Table 7, read-out: MIC in TSB): 4 µg/mL (≈ 16.9 µM); MIC ([7]; Table 1, read-out: MIC): 4 µg/mL (≈ 16.9 µM); MIC ([8]; Table 1, read-out: MIC): 4 µg/mL (≈ 16.9 µM); MIC ([8]; Table 7, read-out: MIC in TSB): 4 µg/mL (≈ 16.9 µM); MIC [9]: > 64 µg/mL; MIC [10]: > 64 µg/mL; MIC [11]: > 64 µg/mL; MIC [12]: > 64 µg/mL; MIC [13]: > 64 µg/mL; MIC [14]: > 64 µg/mL; MIC [15]: > 64 µg/mL; MIC [16]: > 64 µg/mL
